Laboratory results: patent US6979732B1, “Polynucleotide compositions encoding S-adenosyl-L-methionine:phosphoethanolamine N-methyltransferase and methods for modulating lipid biosynthesis in plants” (University of Florida, priority 2000, dated 2005)
Blank lines part the entries; values can stand above or below the molecule they belong to.

Assays:
PEAMT [1] = target: T1, PEAMT (Spinacia oleracea, UniProt Q9M571); assay: PEAMT activity assay with extracts of S. pombe Bx22 cells expressing recombinant wild type PEAMT; assay type: biochemical; details: for inhibition of PEAMT activity (in words): metabolite at 2 mM
T1 construct: The PEAMT cDNA comprises a 494-residue open reading frame; made in house; host or cells: Schizosaccharomyces pombe Bx22 (leu1 cho2-) carrying pREP3-PEAMT; desalted crude extract, not purified
T1 sequence (Q9M571 1-494): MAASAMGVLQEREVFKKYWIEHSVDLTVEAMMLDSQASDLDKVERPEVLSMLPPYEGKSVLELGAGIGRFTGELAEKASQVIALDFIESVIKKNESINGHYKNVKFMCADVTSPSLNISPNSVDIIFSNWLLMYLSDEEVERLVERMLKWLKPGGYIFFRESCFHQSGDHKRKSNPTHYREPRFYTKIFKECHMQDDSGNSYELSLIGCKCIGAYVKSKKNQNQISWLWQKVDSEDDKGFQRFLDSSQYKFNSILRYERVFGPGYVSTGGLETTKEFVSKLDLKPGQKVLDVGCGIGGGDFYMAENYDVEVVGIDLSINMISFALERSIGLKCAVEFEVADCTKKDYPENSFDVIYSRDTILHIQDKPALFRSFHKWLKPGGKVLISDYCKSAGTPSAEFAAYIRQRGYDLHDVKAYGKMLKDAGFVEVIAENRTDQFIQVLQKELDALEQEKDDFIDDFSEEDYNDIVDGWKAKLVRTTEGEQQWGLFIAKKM
Experimental: Cells were grosn to an OD600 of ≈1 in 50 ml of medium at 30° C., shaking at 250 rpm. […] Subsequent operations were at 0-4° C. Cells were harvested by centrifugation (5000×g, 10 min), washed twice with water and once with 100 mM HEPES-KOH, pH 7.8, resuspended in 0.5 ml of lysis buffer (100 mM HEPES-KOH, pH 7.8, 2 mM Na2EDTA, 5 mM dithiothreitol, 10% glycerol) and transferred to 2-ml microfuge tubes containing ≈1.5 g of acid-washed glass beads (425-600 μm). Cells were broken by vortexing at maximum speed for 2 min. The brei was centrifuged (16,000×g, 2 min), the supernatant was removed and the beads were washed with 3×1 ml of lysis buffer. The combined supernatants were clarified by centrifugation (16,000×g, 15 min) and desalted on a PD-10 column (Amersham Pharmacia Biotech, Piscataway, N.J.) equilibrated with storage buffer (10 mM HEPES-KOH, pH 7.8, 2 mM Na2EDTA, 5 mM dithiotreitol, 10% glycerol). The extract was aliquotted, frozen in liquid N2 and stored at […]. Spinach leaf extracts were prepared as described (Summers and […], 1993). Protein was determined using the Bio-Rad dye reagent (Hercules, Calif.). Native molecular mass was estimated using a Waters 626 HPLC system (Milford, Mass.) equipped with a Superdex 200 HR 10/30 column (Amersham Pharmacia Biotech) as described ([…] al., 1995). PEAMT activity was measured by a modification of published methods (Datko and Mudd, 1988b; Summers and […], 1993), under conditions in which product formation was proportional to enzyme concentration and time. […] Reactions were stopped by adding 1 ml of ice-cold water; each was applied to a 1-ml AG-50 (HR^+) column held at 4° C. and the assay tube was rinsed with 1 ml of water, which was also applied to the column. Products were eluted with 10 ml of 0.1 N HCl, and 2 ml of the eluate was mixed with 3 ml of Ready Gel scintillation fluid (Beckman, Palo Alto, Calif.) and counted. For assay blanks, enzyme was omitted during incubation and added just before the ion exchange step.

PEAMT [2] = target: T1, PEAMT; assay: AdoMet:EA N-methyltransferase activity assay of the complemented strain; assay type: biochemical; details: complemented strain extract
Experimental: (§1) AdoMet:EA N-methyltransferase activity was assayed as above except that reactions contained 200 nmol EA and 160 nmol (40 nCi) of [methyl-^14C]AdoMet. The [methyl-^14C]AdoMet was removed by treating with activated charcoal and centrifuging (Cook and Wagner, 1984), and ^14C-incorporation into freebase products was measured by counting a sample of the supernatant. […] For assay blanks, EA was omitted. AdoMet:Ptd-EA N-methyltransferase activity was measured essentially as described (Datko and Mudd, 1988b). Assays (final volume 100 μl) contained 9 μl 10X assay buffer, 0.8 nmol (47 nCi) [methyl-^14C]AdoMet, 10 μl of a Ptd-EA emulsion in 1× assay buffer (10 mg ml^−1, sonicated for 3×30 sec), and enzyme extract; incubation was for 30 min at 30° C. The phospholipid fraction was isolated for ^14C quantification as described (Datko and Mudd, 1988b) except that the methanol:chloroform:water proportions were 12:5:1 (vol./vol./vol.). Data were corrected for the ^14C incorporation in control assays containing extract from Bx22 cells.

ΔPEAMT = target: T2, ΔPEAMT (Spinacia oleracea, UniProt Q9M571); assay: PEAMT activity assay with extracts of S. pombe Bx22 cells expressing truncated ΔPEAMT; assay type: biochemical
T2 construct: made in house; host or cells: Schizosaccharomyces pombe Bx22 (leu1 cho2-) carrying pREP3-ΔPEAMT; desalted crude extract, not purified
T2 sequence (Q9M571 with tags, fused parts or gaps): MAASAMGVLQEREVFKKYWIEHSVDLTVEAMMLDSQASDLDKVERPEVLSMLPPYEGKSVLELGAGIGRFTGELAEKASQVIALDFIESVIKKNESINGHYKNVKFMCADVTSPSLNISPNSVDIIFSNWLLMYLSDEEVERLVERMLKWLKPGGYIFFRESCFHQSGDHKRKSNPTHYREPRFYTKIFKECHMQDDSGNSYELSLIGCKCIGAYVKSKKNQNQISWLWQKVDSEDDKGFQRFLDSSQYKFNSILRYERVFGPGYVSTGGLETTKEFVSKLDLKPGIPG
Experimental: The plasmid encoding PEAMT, designated pREP3-PEAMT, was digested with BamHI and end-polished with T4 DNA polymerase. The 3'-sequence of PEAMT was removed by digestion with MscI; the remaining sequence plus vector was gel-purified and religated to give ΔPEAMT. In ΔPEAMT the native coding sequence terminates at […], and the pREP3 polylinker adds the sequence […] to the carboxyl-terminus. Cells were grosn to an OD600 of ≈1 in 50 ml of medium at 30° C., shaking at 250 rpm. […] Subsequent operations were at 0-4° C. Cells were harvested by centrifugation (5000×g, 10 min), washed twice with water and once with 100 mM HEPES-KOH, pH 7.8, resuspended in 0.5 ml of lysis buffer (100 mM HEPES-KOH, pH 7.8, 2 mM Na2EDTA, 5 mM dithiothreitol, 10% glycerol) and transferred to 2-ml microfuge tubes containing ≈1.5 g of acid-washed glass beads (425-600 μm). Cells were broken by vortexing at maximum speed for 2 min. The brei was centrifuged (16,000×g, 2 min), the supernatant was removed and the beads were washed with 3×1 ml of lysis buffer. The combined supernatants were clarified by centrifugation (16,000×g, 15 min) and desalted on a PD-10 column (Amersham Pharmacia Biotech, Piscataway, N.J.) equilibrated with storage buffer (10 mM HEPES-KOH, pH 7.8, 2 mM Na2EDTA, 5 mM dithiotreitol, 10% glycerol). The extract was aliquotted, frozen in liquid N2 and stored at […]. Spinach leaf extracts were prepared as described (Summers and […], 1993). Protein was determined using the Bio-Rad dye reagent (Hercules, Calif.). Native molecular mass was estimated using a Waters 626 HPLC system (Milford, Mass.) equipped with a Superdex 200 HR 10/30 column (Amersham Pharmacia Biotech) as described ([…] al., 1995). PEAMT activity was measured by a modification of published methods (Datko and Mudd, 1988b; Summers and […], 1993), under conditions in which product formation was proportional to enzyme concentration and time. […] Products were eluted with 10 ml of 0.1 N HCl, and 2 ml of the eluate was mixed with 3 ml of Ready Gel scintillation fluid (Beckman, Palo Alto, Calif.) and counted. […]

PEAMT [3] = target: T1, PEAMT; assay: AdoMet:Ptd-EA N-methyltransferase activity assay of the complemented strain; assay type: biochemical; details: complemented strain extract
Experimental: as §1

[4] = substrate: NCCOP(=O)(O)O; assay: PEAMT activity assay with extracts of S. pombe Bx22 cells expressing recombinant wild type PEAMT; assay type: biochemical, Spinacia oleracea; details: other: recombinant PEAMT, substrate
Experimental: Cells were grosn to an OD600 of ≈1 in 50 ml of medium at 30° C., shaking at 250 rpm. […] Subsequent operations were at 0-4° C. Cells were harvested by centrifugation (5000×g, 10 min), washed twice with water and once with 100 mM HEPES-KOH, pH 7.8, resuspended in 0.5 ml of lysis buffer (100 mM HEPES-KOH, pH 7.8, 2 mM Na2EDTA, 5 mM dithiothreitol, 10% glycerol) and transferred to 2-ml microfuge tubes containing ≈1.5 g of acid-washed glass beads (425-600 μm). Cells were broken by vortexing at maximum speed for 2 min. The brei was centrifuged (16,000×g, 2 min), the supernatant was removed and the beads were washed with 3×1 ml of lysis buffer. The combined supernatants were clarified by centrifugation (16,000×g, 15 min) and desalted on a PD-10 column (Amersham Pharmacia Biotech, Piscataway, N.J.) equilibrated with storage buffer (10 mM HEPES-KOH, pH 7.8, 2 mM Na2EDTA, 5 mM dithiotreitol, 10% glycerol). […] Protein was determined using the Bio-Rad dye reagent (Hercules, Calif.). […] PEAMT activity was measured by a modification of published methods (Datko and Mudd, 1988b; Summers and […], 1993), under conditions in which product formation was proportional to enzyme concentration and time. […] Products were eluted with 10 ml of 0.1 N HCl, and 2 ml of the eluate was mixed with 3 ml of Ready Gel scintillation fluid (Beckman, Palo Alto, Calif.) and counted. […]

[5] = 3-hr incubation, small quantity of P-EA, 5-fold excess of [methyl-14C]AdoMet

Molecule: C[S+](CC[C@H](N)C(=O)[O-])C[C@H]1O[C@@H](n2cnc3c(N)ncnc32)[C@H](O)[C@@H]1O (stereo partly drawn) [AdoMet, S-adenosyl-L-methionine]
Km (PEAMT [1]; recombinant PEAMT, substrate): 140 µM

Molecule: CN(C)CCO [DME]
inhibition of PEAMT activity (in words) (PEAMT [1]): not inhibitory

Molecule: phosphatidylethanolamine [Ptd-EA]
activity with Ptd-EA as substrate (PEAMT [3]): < 1 pkat mg^−1 protein

B1: ΔPEAMT: truncated spinach PEAMT; native coding sequence terminates at Gly-286, plus Ile Pro Gly; SEQ ID NO:4 (protein, listed as Spinacia oleracea)
chain: MAASAMGVLQEREVFKKYWIEHSVDLTVEAMMLDSQASDLDKVERPEVLSMLPPYEGKSVLELGAGIGRFTGELAEKASQVIALDFIESVIKKNESINGHYKNVKFMCADVTSPSLNISPNSVDIIFSNWLLMYLSDEEVERLVERMLKWLKPGGYIFFRESCFHQSGDHKRKSNPTHYREPRFYTKIFKECHMQDDSGNSYELSLIGCKCIGAYVKSKKNQNQISWLWQKVDSEDDKGFQRFLDSSQYKFNSILRYERVFGPGYVSTGGLETTKEFVSKLDLKPGIPG
PEAMT activity in the absence of P-Cho (ΔPEAMT; 50 μg protein, 10 min, 50 nmol P-EA, 170 nmol AdoMet): 200±10 pkat mg^−1 protein
reaction product (ΔPEAMT; [5]): only [^14C]P-MME

B2: PEAMT (Spinacia oleracea) (protein)
chain: MAASAMGVLQEREVFKKYWIEHSVDLTVEAMMLDSQASDLDKVERPEVLSMLPPYEGKSVLELGAGIGRFTGELAEKASQVIALDFIESVIKKNESINGHYKNVKFMCADVTSPSLNISPNSVDIIFSNWLLMYLSDEEVERLVERMLKWLKPGGYIFFRESCFHQSGDHKRKSNPTHYREPRFYTKIFKECHMQDDSGNSYELSLIGCKCIGAYVKSKKNQNQISWLWQKVDSEDDKGFQRFLDSSQYKFNSILRYERVFGPGYVSTGGLETTKEFVSKLDLKPGQKVLDVGCGIGGGDFYMAENYDVEVVGIDLSINMISFALERSIGLKCAVEFEVADCTKKDYPENSFDVIYSRDTILHIQDKPALFRSFHKWLKPGGKVLISDYCKSAGTPSAEFAAYIRQRGYDLHDVKAYGKMLKDAGFVEVIAENRTDQFIQVLQKELDALEQEKDDFIDDFSEEDYNDIVDGWKAKLVRTTEGEQQWGLFIAKKM
notes: The PEAMT cDNA comprises a 494-residue open reading frame; made in house; host or cells: Schizosaccharomyces pombe Bx22 (leu1 cho2-) carrying pREP3-PEAMT; desalted crude extract, not purified
Km [4]: 96 µM

Further lines, with some results ahead:

activity with EA as substrate (PEAMT [2]): < 1 pkat mg^−1 protein
Molecule: NCCO [EA, ethanolamine]

inhibition of PEAMT activity (in words) (PEAMT [1]): not inhibitory
Molecule: C[N+](C)(C)CC(=O)[O-] [GlyBet, glycine betaine]

inhibition of PEAMT activity (in words) (PEAMT [1]): not inhibitory
Molecule: CNCCO [MME]

reduction of PEAMT activity (PEAMT [1]; 2 mM P-Cho, 50 nmol P-EA, 170 nmol [methyl-14C]AdoMet, 10 min): 80%
inhibition at 10000 µM (PEAMT [1]; 10 mM P-Cho, saturating P-EA concentration, read-out: reduction (inhibition) of PEAMT activity): 95%
Molecule: C[N+](C)(C)CCOP(=O)([O-])O [P-Cho, phosphocholine]
sensitivity of ΔPEAMT to P-Cho compared with the wild-type enzyme (ΔPEAMT; 10 mM P-Cho, P=0.05): retaining twice as much of its initial activity

PEAMT activity in the absence of P-Cho (PEAMT [1]; 25 μg protein, 10 min, 50 nmol P-EA, 170 nmol AdoMet): 737±18 pkat mg^−1 protein
reaction product (PEAMT [1]; [5]): almost solely [^14C]P-Cho
specific activity of PEAMT in extracts of complemented cells relative to spinach leaves (PEAMT [1]; FIG. 2A): up to 80 fold
pH optimum of PEAMT activity (PEAMT [1]; recombinant PEAMT): 8.1-8.5
Molecule: S-adenosyl-L-methionine:phosphoethanolamine N-methyltransferase [PEAMT]
